Measured values from ChEMBL document CHEMBL1201862, “PubChem BioAssay data set” (2004).
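Each compound was tested at five concentrations against cells in 96-well plates for 48 hours. At the GI50, growth is halved.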 The source made the active and inactive calls. No stated cut-off is given here; in the data, active = GI50 up to about 1.1 µM and inactive = higher.

What was measured:
Assay in all cases: NCI tumour cell line growth inhibition, 48 h
BT-549 = tested on: BT-549
LXFL 529 = tested on: LXFL 529
SNB-78 = tested on: SNB-78
XF498 = tested on: XF498
DMS-114 = tested on: DMS-114
RXF 631 = tested on: RXF 631
DMS-273 = tested on: DMS-273
KM-20L2 = tested on: KM-20L2
HOP-18 = tested on: HOP-18

SMILES	GI50 (BT-549)	GI50 (LXFL 529)	GI50 (SNB-78)	GI50 (DMS-114)	GI50 (DMS-273)	also measured
C=C(Cl)CN1c2ccccc2C=Cc2ccccc21	46 µM (inactive)					
O=C(/C=C/c1ccc([N+](=O)[O-])cc1)N1CCN(CCOC(c2ccc(F)cc2)c2ccc(F)cc2)CC1	> 100 µM (inactive)					
O=C1CC2CCCCC2=C1O (configuration not stated)		> 100 µM (inactive)	> 100 µM (inactive)	> 100 µM (inactive)	> 100 µM (inactive)	GI50 (XF498): > 100 µM (inactive); GI50 (RXF 631): > 100 µM (inactive)
CN(C)c1c(Cl)c(=O)oc2c1ccc1nc(-c3ccccc3)sc12	> 100 µM (inactive)					
Oc1ccc(Cl)cc1-c1cc(-c2ccccc2)nc(NCN2CCCCC2)n1	> 100 µM (inactive)					
COc1ccc(-c2nc(-c3cnccn3)n(C3OC(CO)C(O)C3O)n2)cc1 (configuration not stated)	> 10 µM (inactive)					
CN(C)c1ccc(/C=N/c2nc3cc4sc(/N=C/c5ccc(N(C)C)cc5)nc4cc3s2)cc1	71 µM (inactive)					
COC(=O)[C@]12CC=C3O[C@@H]4OC5(CCCCC5)O[C@@H]4[C@H]3C1C(=O)C=CC2=O (some centres not stated)	19.2 µM (inactive)	9.84 µM (inactive)	18.8 µM (inactive)	17.5 µM (inactive)	18.1 µM (inactive)	GI50 (KM-20L2): 19.7 µM (inactive); GI50 (XF498): 12.6 µM (inactive); GI50 (HOP-18): 18.5 µM (inactive)
Cn1c(N)cc(=O)nc1N	> 100 µM (inactive)					
Cc1ccc(NC(=O)CC2Sc3ccccc3NC2=O)cc1C (configuration not stated)		49 µM (inactive)	> 100 µM (inactive)	41.9 µM (inactive)	85.7 µM (inactive)	GI50 (KM-20L2): > 100 µM (inactive); GI50 (XF498): > 100 µM (inactive); GI50 (HOP-18): > 100 µM (inactive)
Cc1ccc(S(=O)(=O)OC2CSSCC2OS(=O)(=O)c2ccc(C)cc2)cc1 (configuration not stated)		11.4 µM (inactive)	20 µM (inactive)	11.9 µM (inactive)	10.1 µM (inactive)	GI50 (KM-20L2): 14 µM (inactive); GI50 (HOP-18): 17.4 µM (inactive); GI50 (RXF 631): 13.6 µM (inactive)
Cc1cccc2c1NC(=S)[C@@H]1CCCN1C2=O	> 100 µM (inactive)					
COc1ccc(/C=C2\N=C(c3ccccc3)OC2=O)cc1OC(C)=O	> 100 µM (inactive)					
CC(C)[Si](OCC/C=C/C1CCC(=O)C1C(O)C1CCCCC1)(C(C)C)C(C)C (configuration not stated)	18.9 µM (inactive)					
CCCCCCC(C)CC(CCCCCC)NCCOC(=O)c1ccc([N+](=O)[O-])cc1 (configuration not stated)	16.4 µM (inactive)					
COc1cc(C2C(Cl)C(=O)N2n2cnc3ccccc3c2=O)cc(OC)c1OC (configuration not stated)		> 100 µM (inactive)	> 100 µM (inactive)	43.4 µM (inactive)	41 µM (inactive)	GI50 (KM-20L2): 64.3 µM (inactive); GI50 (XF498): > 100 µM (inactive); GI50 (HOP-18): > 100 µM (inactive)
O=C(Nc1sccc1S(=O)(=O)c1ccc(Cl)cc1)c1ccccc1	> 100 µM (inactive)					

SMILES	GI50 (BT-549)	GI50 (LXFL 529)	GI50 (SNB-78)	GI50 (DMS-114)	GI50 (DMS-273)	also measured
CCOC(=O)c1c(SCCN(CC)CC)n(-c2ccccc2)c(=S)n(-c2ccccc2)c1=O	7.13 µM (inactive)					
FC(F)(F)c1ccccc1N1CCN(c2nc(-c3cccs3)nc3ccc(Br)cc23)CC1	50 µM (inactive)					
Cc1nnc2n1N=C(c1cc(F)c(Cl)cc1Cl)/C(=C/c1ccc(-c3ccc([N+](=O)[O-])cc3)o1)S2	58.2 µM (inactive)					
O=S1(=O)OCCOS(=O)(=O)C1Br		> 100 µM (inactive)	> 100 µM (inactive)	> 100 µM (inactive)	> 100 µM (inactive)	GI50 (RXF 631): > 100 µM (inactive)
CCOC1C=CC(=O)C(CO)O1 (configuration not stated)	11.6 µM (inactive)					
COc1ccc(/C=C(/C#N)C(N)=O)c(OC)c1	> 100 µM (inactive)					
Cn1c(=O)oc2cc(C(=S)N3CCC(Cc4ccccc4)CC3)ccc21	> 100 µM (inactive)					
CC(=O)Nc1ccc(-c2nnc(SCC(=O)Nc3cccc([N+](=O)[O-])c3)o2)cc1		2.99 µM (inactive)	18 µM (inactive)	10.2 µM (inactive)	10.9 µM (inactive)	GI50 (KM-20L2): 17.8 µM (inactive); GI50 (HOP-18): 21.1 µM (inactive)
OC(c1ccccc1)C1CC2C=CC1C2 (configuration not stated)		> 100 µM (inactive)	> 100 µM (inactive)	> 100 µM (inactive)	> 100 µM (inactive)	GI50 (XF498): > 100 µM (inactive); GI50 (RXF 631): > 100 µM (inactive)
COC(=O)CCC1(NS(=O)(=O)c2ccc(C)cc2)CCC(C(C)(C)C)CC1 (configuration not stated)		15 µM (inactive)	21.3 µM (inactive)	4.58 µM (inactive)	12.9 µM (inactive)	GI50 (XF498): 14.8 µM (inactive); GI50 (RXF 631): 15.9 µM (inactive)
Cc1ccc(C(=O)c2[nH]c(NCc3ccccc3)c(C(=S)Nc3ccccc3)c2N)cc1	7.94 µM (inactive)					
CCCCCCCCCCCCn1c(=O)cc(NCCCC)c2cc3c(NCCCC)cc(=O)n(CCCCCCCCCCCC)c3nc21	> 100 µM (inactive)					
C=C(C)[C@@H]1CC[C@]2(C(=O)O)CC[C@]3(C)[C@H](CC[C@@H]4[C@@]5(C)CC(=O)C(C)(C)[C@@H]5CC[C@]43C)[C@@H]12	10.3 µM (inactive)					
OC12c3ccccc3C1CCCCCCCCCC21OCCCO1 (configuration not stated)		> 100 µM (inactive)	> 100 µM (inactive)	> 100 µM (inactive)	> 100 µM (inactive)	GI50 (XF498): > 100 µM (inactive); GI50 (HOP-18): > 100 µM (inactive)
O=C(O)Cc1nc[nH]c1C(=O)O	> 100 µM (inactive)					
CC(=O)Nc1ccc2c3c(cc(O)c2c1)N(C(=O)CCCCCC(=O)Nc1ccc2c4c(cc(O)c2c1)N(C(=O)OC(C)(C)C)CC4CCl)CC3CCl (configuration not stated)	1.87 µM (inactive)					
